Biological target: T1, Human DNA polymerase gamma (Homo sapiens, UniProt P54098)
T1 construct: purchased Abcam
T1 sequence (P54098 1-1239): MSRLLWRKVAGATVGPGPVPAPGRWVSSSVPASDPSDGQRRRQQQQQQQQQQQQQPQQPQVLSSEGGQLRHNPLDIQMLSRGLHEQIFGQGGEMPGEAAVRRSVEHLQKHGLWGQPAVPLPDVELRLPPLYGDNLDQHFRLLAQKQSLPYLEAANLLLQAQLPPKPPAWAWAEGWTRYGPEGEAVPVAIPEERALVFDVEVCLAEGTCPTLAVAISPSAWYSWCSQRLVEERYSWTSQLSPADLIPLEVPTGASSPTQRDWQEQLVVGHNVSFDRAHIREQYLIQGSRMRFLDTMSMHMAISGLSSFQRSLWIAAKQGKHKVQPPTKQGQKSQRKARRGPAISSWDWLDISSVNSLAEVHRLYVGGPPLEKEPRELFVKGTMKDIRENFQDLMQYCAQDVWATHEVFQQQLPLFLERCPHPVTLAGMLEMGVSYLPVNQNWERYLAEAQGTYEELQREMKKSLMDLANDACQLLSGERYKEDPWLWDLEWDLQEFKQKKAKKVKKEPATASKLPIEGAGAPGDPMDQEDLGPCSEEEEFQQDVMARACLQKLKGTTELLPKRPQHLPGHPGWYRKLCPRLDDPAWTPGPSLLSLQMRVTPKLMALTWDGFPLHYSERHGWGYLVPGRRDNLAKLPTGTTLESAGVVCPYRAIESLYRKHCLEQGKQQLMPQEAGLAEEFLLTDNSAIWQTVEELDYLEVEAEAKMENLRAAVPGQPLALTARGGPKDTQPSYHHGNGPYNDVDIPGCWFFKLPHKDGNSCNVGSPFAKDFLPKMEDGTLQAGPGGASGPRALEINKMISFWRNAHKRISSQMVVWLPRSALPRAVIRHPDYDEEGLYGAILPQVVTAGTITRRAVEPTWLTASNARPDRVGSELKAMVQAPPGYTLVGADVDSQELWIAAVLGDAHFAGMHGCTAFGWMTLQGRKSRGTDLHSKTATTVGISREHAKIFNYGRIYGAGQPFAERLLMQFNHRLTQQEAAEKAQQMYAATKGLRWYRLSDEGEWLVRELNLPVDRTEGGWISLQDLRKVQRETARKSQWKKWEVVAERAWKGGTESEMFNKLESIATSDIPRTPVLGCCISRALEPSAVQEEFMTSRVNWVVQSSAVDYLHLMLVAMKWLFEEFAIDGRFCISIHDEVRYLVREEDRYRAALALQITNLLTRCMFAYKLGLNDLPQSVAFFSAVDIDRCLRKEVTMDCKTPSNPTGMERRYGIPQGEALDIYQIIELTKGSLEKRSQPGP
Assay: DNA-dependent DNA polymerase activity
Assay type: biochemical
Conditions: DNA Pol γ
Procedure: to the method described previously 1. A 25 nM solution of RSV MTase-CTD protein or RSV L+P complex was incubated with 0.7 µM or 1.8 µM purified synthetic RNA 5’-Gppp […]
[…] (RSV9) for the MTase-CTD or L+P complex, respectively; 2 µM or 0.17 µM S-adenosyl methionine (SAM) for the MTase-CTD or L–P complex, respectively; and 0.1 µM or 0.8 µM 3H-SAM (Perkin Elmer) for the MTase-CTD or L–P complex, respectively; in 50 mM Tris-HCl pH 8.0. Compounds, previously dissolved in DMSO were added at a final concentration of 50 µM or 200 µM. After 3 h incubation at 30°C, reactions were quenched by a 20-fold dilution in ice cold water. Samples were transferred to DEAE filtermats (Perkin Elmer) using a Filtermat Harvester (Packard Instruments). The RNA-retaining mats were washed twice with 10 mM ammonium formate pH 8.0, twice with water and once with ethanol. They were then soaked with scintillation fluid (Perkin Elmer), and 3H-methyl transfer to the RNA substrates was determined using a Wallac MicroBeta TriLux Liquid Scintillation Counter.
Cellular polymerase assays
DNA-dependant DNA polymerase (DdDp) activity
Human DNA polymerases alpha (CHIMERx) at 5 U/ml, beta (CHIMERx) at 0.5 U/ml and gamma (Abcam) at 0.1 mg/ml were incubated with the tested inhibitors at specified concentrations, and a reaction mix composed of 62 µg/ml activated calf thymus DNA, dGTP (2 µM), dATP (2 µM), dCTP (2 µM), [ 3H]dTTP (0.05 µCi/µl), 0.1 mg/ml BSA and a buffer composed of Tris-HCl pH 8 (50 mM), MgCl 2 (5 mM), KCl (60 mM), and DTT (4 mM.) in a total volume of 50 µl. After 2 hours incubation at 30°C, reaction was terminated by addition of 60 µl of a chilled stop solution composed of 20% (w/v) TCA with 0.5 mM ATP. […] Radioactivity was measured via liquid scintillation counting (MicroScint-20, 40µl) on a TriLux apparatus. […]
The RNA transcription activity of human mitochondrial RNA polymerase (POLRMT) was measured by the incorporation of radioactively labeled nucleotides by POLRMT into acid-insoluble RNA products as described previously 2. […]

`COc1cc(C(=O)NC[C@](O)(c2cc(C(C)(C)O)c(F)c(-c3ccc(F)cc3)n2)C(F)(F)F)cc2cc(C)nnc12` [JNJ-8003] gave an IC50 greater than 100 µM.

Reference: publication PMC10590419, “Structural and mechanistic insights into the inhibition of respiratory syncytial virus polymerase by a non-nucleoside inhibitor” (Communications Biology, 2023)
